Experimental data reported in patent US20260193254A1, “2-OXOQUINAZOLINE CRYSTALLINE FORMS” (IDEAYA Biosciences, Inc., priority 2022, published 2026).
Converted amounts (≈) assume the structure as drawn. Marks after values point to notes of the source that are not given here.

Experiments:
Type in all cases: physicochemical
[1] = Bulk stability of crystalline forms; design: key: Color A: All No change of color; conditions: Solid state
Text: (§1) Solids obtained after bulk stability study were characterized by XRPD and HPLC.

Water activity study = conditions: protected by kapton film
Text: These solvent mixtures were saturated with the compound of Formula (I) before addition of the polymorph seeds. […] These solvent mixtures were saturated with the compound of Formula (I) before addition of the polymorph seeds. Obtained suspension was filtered. Solid part (wet cake) was investigated by XRPD.

[2] = Bulk stability of crystalline forms; conditions: for Purity, Bulk (HPLC): Solid state
Text: as §1

[3] = Intrinsic dissolution rate (IDR) evaluation in FaSSIF; conditions: FaSSIF at 37° C.
Description: Only one surface of the pellet was exposed (surface area=0.50 cm^2) to 900 mL FaSSIF, the dissolution medium. Temperature of chamber medium was set as 37±0.5° C. Shaft rotation as 100 rpm and sampling time points as 2 min, 5 min, 10 min, 15 min, 20 min, 25 min, 30 min, 35 min, 40 min, 50 min, 60 min, and 120 min. 2 mL sample solution was withdrawn at each time point and centrifuged at 14,000 rpm for 5 min to isolate supernatant. Then concentration of the supernatant was analyzed by HPLC. After 120 min, XRPD of disc surface was measured.

[4] = Equilibrium solubility in FeSSIF and FaSSIF; conditions: 24 hours; for Solubility: target concentration 1 mg/mL, HPLC method 1 or 2 (footnote); for impurity in solubility sample: no unit printed for impurity (column head mg/mL)
Description: (§2) Solid part and liquid part were separated by filtration. Solubility was measured by HPLC. Solid part (wet cake) was investigated by XRPD.

[5] = Equilibrium solubility in SGF (pH 2.0), 0.1 N HCl (pH 1.2) and phosphate buffer (pH 8.0); conditions: 24 hours; for solubility at 24 h: 37 °C, thermodynamic from solid, target concentration 1 mg/mL, HPLC method 2
Description: as §2

[6] = Approximate solubility of solid state Form V at 25° C. and 50° C. (visual observation); conditions: thermodynamic from solid
Description: Maximum volume of each solvent added was 1 mL. Approximate solubility was determined by visual observation.

[7] = Crystallization at room temperature by fast evaporation; conditions: nitrogen flow
Text: The samples are filtered by 0.45 μm nylon filter. Obtained solutions were fast evaporated under nitrogen flow. Solid residues were examined for their polymorphic form.

[8] = 25° C./92% RH, open container, 1 week
[9] = 25° C./92% RH, open container, 2 weeks
[10] = 40° C./75% RH, open container, 1 week
[11] = 40° C./75% RH, open container, 2 weeks
[12] = 60° C., tight container, 1 week
[13] = 60° C., tight container, 2 weeks
[14] = pH 8 (phosphate buffer), 37° C.

In the case of `Nc1nc(=O)n(-c2ccccc2Cl)c2nc(C(F)(F)F)ccc12` [solid state Form V, 4-Amino-1-(2-chlorophenyl)-7-(trifluoromethyl)pyrido[2,3-d]pyrimidin-2(1H)-one], the Color [1, 8] is reported as “A”, the Color [1, 9] is reported as “A” and the Color [1, 10] is reported as “A”. For the same molecule, the Color [1, 11] was “A”, the Color [1, 12] was “A” and the Color [1, 13] was “A”. The “Form obtained in water activity study (XRPD)” value (from here on “Form obtained”) (Water activity study; AW4 EtOH/water = 0.4/0.6 (v/v) aw = 0.91, 25° C. (4 days)) was “Form F (protected by kapton film)”, the “Form obtained” value (Water activity study; AW5 EtOH/water = 0.3/0.7 (v/v) aw = 0.93, 25° C. (4 days)) was “Form F (protected by kapton film)” and the “Form obtained” value (Water activity study; AW6 EtOH/water = 0.2/0.8 (v/v) aw = 0.95, 25° C. (4 days)) was “Form F (protected by kapton film)^a”. The “Form obtained” value (Water activity study; AW7 EtOH/water = 0.1/0.9 (v/v) aw = 0.97, 25° C. (4 days)) was “Form E (protected by kapton film)”, the “Form obtained” value (Water activity study; AW8 MeOH aw = 0.0, 25° C. (4 days)) was “Form C (protected by kapton film)” and the “Form obtained” value (Water activity study; AW9 MeOH/water = 0.970/0.030 (v/v) aw = 0.1, 25° C. (4 days)) was “Form F (protected by kapton film)”. The “Form obtained” value (Water activity study; AW10 MeOH/water = 0.930/0.070 (v/v) aw = 0.2, 25° C. (4 days)) was “Form F (protected by kapton film)”, the “Form obtained” value (Water activity study; AW11 MeOH/water = 0.893/0.107 (v/v) aw = 0.3, 25° C. (4 days)) was “Form F (protected by kapton film)” and the “Form obtained” value (Water activity study; AW12 MeOH/water = 0.775/0.225 (v/v) aw = 0.5, 25° C. (4 days)) was “Form F (protected by kapton film)”. The “Form obtained” value (Water activity study; AW13 MeOH/water = 0.580/0.420 (v/v) aw = 0.7, 25° C. (4 days)) was “Form F (protected by kapton film)”, the “Form obtained” value (Water activity study; AW14 MeOH/water = 0.4/0.6 (v/v) aw = 0.81, 25° C. (4 days)) was “Form E (protected by kapton film)” and the “Form obtained” value (Water activity study; AW15 MeOH/water = 0.3/0.7 (v/v) aw = 0.86, 25° C. (4 days)) was “Form E (protected by kapton film)”. The “Form obtained” value (Water activity study; AW16 MeOH/water = 0.2/0.8 (v/v) aw = 0.91, 25° C. (4 days)) was “Form E (protected by kapton film)”, the “Form obtained” value (Water activity study; AW17 MeOH/water = 0.1/0.9 (v/v) aw = 0.96, 25° C. (4 days)) was “Form E (protected by kapton film)” and the “Form obtained” value (Water activity study; AW18 Water aw = 1.0, 25° C. (4 days)) was “Form E (protected by kapton film)^b”. For the same molecule, the “Purity, Bulk (HPLC)” value [2, 8] was 98.9%, the “Purity, Bulk (HPLC)” value [2, 9] was 98.9% and the “Purity, Bulk (HPLC)” value [2, 10] was 98.9%. The “Purity, Bulk (HPLC)” value [2, 11] was 98.7%, the “Purity, Bulk (HPLC)” value [2, 12] was 98.8% and the “Purity, Bulk (HPLC)” value [2, 13] was 98.9%. For the same molecule, the Initial purity ([2]; before stress, HPLC) was 98.9%, the “chemical stability and physical stability (bulk stability)” value ([2]; stressed under 25° C./92 RH, 40% C/75% RH and 60° C., XRPD and HPLC) was “good chemical stability and physical stability” and the “XRPD after IDR” value ([3]; disc surface after 120 min) was “No form change”. The “Concentration detected during IDR test (Comments)” value ([3]; for Form V and Form A remains same during the whole process, LOQ for Form T and amorphous form) was “(0.006 mg/mL)”, the “final pH” value ([4]; FaSSIF, pH 6.5, 37° C.) was 6.5 and the Solubility ([4]; FaSSIF, pH 6.5, 37° C.) was 100 µg/mL (≈ 0.294 mM). For the same molecule, the “impurity in solubility sample” value ([4]; FaSSIF, pH 6.5, 37° C.) was “no impurity”, the “final pH” value ([4]; FeSSIF, pH 5.0, 37° C.) was 5.0 and the Solubility ([4]; FeSSIF, pH 5.0, 37° C.) was 260 µg/mL (≈ 0.763 mM). For the same molecule, the “impurity in solubility sample” value ([4]; FeSSIF, pH 5.0, 37° C.) was “no impurity”, the solubility at 24 h ([5]; 0.1 N HCl, pH 1.2, simulated gastric fluid, pH 1.2 (0.1N HCl)) was 150 µg/mL (≈ 0.44 mM) and the “final pH” value ([5]; SGF, pH 2.0, 37° C.) was 2.3. For the same molecule, the “final pH” value ([5]; pH 1.2 (0.1N HCl), 37° C.) was 1.3, the “XRPD of solid after solubility test” value [5, 14] was “Solid state Form V” and the “final pH” value [5, 14] was 8.0. For the same molecule, the “impurity in solubility sample” value [5, 14] was “no impurity”, the solubility at 24 h ([5]; phosphate buffer, pH 8, aqueous buffer, pH 8 (phosphate buffer)) was 40 µg/mL (≈ 0.117 mM) and the solubility at 24 h ([5]; simulated gastric fluid (SGF), pH 2, simulated gastric fluid, SGF, pH 2.0, 37° C.) was 70 µg/mL (≈ 0.205 mM). For the same molecule, the solubility at 10 min ([6]; organic solvent or mixture, SL2 Methanol, 25° C.) was 15000 to 18000 µg/mL (≈ 44 to 52.8 mM), the solubility at 10 min ([6]; organic solvent or mixture, SL2 Methanol, 50° C.) was 30000 to 35000 µg/mL (≈ 88.1 to 103 mM) and the solubility at 10 min ([6]; organic solvent or mixture, SL3 Ethanol, 25° C.) was 7000 to 8000 µg/mL (≈ 20.5 to 23.5 mM). The solubility at 10 min ([6]; organic solvent or mixture, SL3 Ethanol, 50° C.) was 15000 to 17000 µg/mL (≈ 44 to 49.9 mM), the solubility at 10 min ([6]; organic solvent or mixture, SL4 2-Propanol, 25° C.) was < 5000 µg/mL and the solubility at 10 min ([6]; organic solvent or mixture, SL4 2-Propanol, 50° C.) was 5000 to 10000 µg/mL (≈ 14.7 to 29.4 mM). The solubility at 10 min ([6]; organic solvent or mixture, SL5 Ethyl acetate, 25° C.) was < 5000 µg/mL, the solubility at 10 min ([6]; organic solvent or mixture, SL5 Ethyl acetate, 50° C.) was < 5000 µg/mL and the solubility at 10 min ([6]; organic solvent or mixture, SL6 Isopropyl acetate, 25° C.) was < 5000 µg/mL. The solubility at 10 min ([6]; organic solvent or mixture, SL6 Isopropyl acetate, 50° C.) was < 5000 µg/mL, the solubility at 10 min ([6]; organic solvent or mixture, SL7 Acetone, 25° C.) was < 5000 µg/mL and the solubility at 10 min ([6]; organic solvent or mixture, SL7 Acetone, 50° C.) was 5000 to 10000 µg/mL (≈ 14.7 to 29.4 mM). For the same molecule, the solubility at 10 min ([6]; organic solvent or mixture, SL8 Methyl ethyl ketone, 25° C.) was < 5000 µg/mL, the solubility at 10 min ([6]; organic solvent or mixture, SL8 Methyl ethyl ketone, 50° C.) was < 5000 µg/mL and the solubility at 10 min ([6]; organic solvent or mixture, SL9 t-Butyl methyl ether, 25° C.) was < 5000 µg/mL. For the same molecule, the solubility at 10 min ([6]; organic solvent or mixture, SL9 t-Butyl methyl ether, 50° C.) was < 5000 µg/mL, the solubility at 10 min ([6]; organic solvent or mixture, SL10 Tetrahydrofuran, 25° C.) was < 5000 µg/mL and the solubility at 10 min ([6]; organic solvent or mixture, SL10 Tetrahydrofuran, 50° C.) was < 5000 µg/mL. The solubility at 10 min ([6]; organic solvent or mixture, SL11 2-methyl-THF, 25° C.) was < 5000 µg/mL, the solubility at 10 min ([6]; organic solvent or mixture, SL11 2-methyl-THF, 50° C.) was < 5000 µg/mL and the solubility at 10 min ([6]; organic solvent or mixture, SL12 Acetonitrile, 25° C.) was < 5000 µg/mL. The solubility at 10 min ([6]; organic solvent or mixture, SL12 Acetonitrile, 50° C.) was < 5000 µg/mL, the solubility at 10 min ([6]; organic solvent or mixture, SL13 Heptane, 25° C.) was < 5000 µg/mL and the solubility at 10 min ([6]; organic solvent or mixture, SL13 Heptane, 50° C.) was < 5000 µg/mL. The solubility at 10 min ([6]; organic solvent or mixture, SL14 Dichloromethane, 25° C.) was < 5000 µg/mL, the solubility at 10 min ([6]; organic solvent or mixture, SL14 Dichloromethane, 50° C.) was < 5000 µg/mL and the solubility at 10 min ([6]; organic solvent or mixture, SL15 Toluene, 25° C.) was < 5000 µg/mL. For the same molecule, the solubility at 10 min ([6]; organic solvent or mixture, SL15 Toluene, 50° C.) was < 5000 µg/mL, the solubility at 10 min ([6]; SL1 Water, 25° C.) was < 5000 µg/mL and the solubility at 10 min ([6]; SL1 Water, 50° C.) was < 5000 µg/mL. The “Crystalline Form formed by fast evaporation” value (“Crystalline Form formed” below) ([7]; FE1 Methanol (14 mg/mL)) was “Form B”, the “Crystalline Form formed” value ([7]; FE2 Ethanol (7 mg/mL)) was “Solid state Form V” and the “Crystalline Form formed” value ([7]; FE3 2-Propanol (4 mg/mL)) was “Solid state Form V”. The “Crystalline Form formed” value ([7]; FE6 Acetone (3 mg/mL)) was “Form G”, the “Crystalline Form formed” value ([7]; FE7 Methyl ethyl ketone (3 mg/mL)) was “Form G” and the “Crystalline Form formed” value ([7]; FE9 Tetrahydrofuran (4 mg/mL)) was “Form K”. The “Crystalline Form formed” value ([7]; FE10 Acetonitrile (3 mg/mL)) was “Solid state Form V”, the “Crystalline Form formed” value ([7]; FE12 Methanol/Ethyl acetate = 1/1 (v/v) (5 mg/mL)) was “Solid state Form V” and the “Crystalline Form formed” value ([7]; FE13 Methanol/Acetonitrile = 1/1 (v/v) (5 mg/mL)) was “Solid state Form V”. For the same molecule, the “Crystalline Form formed” value ([7]; FE14 Ethanol/t-Butyl methyl ether = 1/1 (v/v) (5 mg/mL)) was “Solid state Form V” and the “Crystalline Form formed” value ([7]; FE15 Ethanol/Dichloromethane = 1/1 (v/v) (5 mg/mL)) was “Solid state Form V”.
